# Laboratory results reported in article PMC9250534, “Synthesis and direct assay of large macrocycle diversities by combinatorial late-stage modification at picomole scale” (Nature Communications, 2022).
# Numbered stars: 1 amine (or outer) side, 2 acyl side, 3 side chain; on linkers, the order of the positions; unused ones are H or OH. Bridge positions count the residues as written; N and C are the ends. Square brackets hold non-standard residues; d marks the D form. Side chains are listed from the residue outwards. Peptide text beside a SMILES is read from it. * marks the point of attachment. Shikimoyl = O=C(C1=C[C@@H](O)[C@@H](O)[C@H](O)C1)*; Cyclopropanecarbonyl(1-CN) = N#CC1(C(=O)*)CC1; Pyrazinoyl(5-oxo-4H) = O=C(c1c[nH]c(=O)cn1)*; Benzoyl(3,5-diOMe) = COc1cc(OC)cc(C(=O)*)c1; Isoxazole3carbonyl(5-Me) = Cc1cc(C(=O)*)no1; 1,2,3Thiadiazole5CO(4-Me) = Cc1nnsc1C(=O)*; Benzoyl(3-CF3) = O=C(c1cccc(C(F)(F)F)c1)*; Tetrahydropyran4carbonyl = O=C(C1CCOCC1)*; Isoorotoyl = O=C(c1c[nH]c(=O)[nH]c1=O)*; Nicotinoyl(6-OMe) = COc1ccc(C(=O)*)cn1; Indane2carbonyl = O=C(C1Cc2ccccc2C1)*; Acetyl(4-pyridyl) = O=C(Cc1ccncc1)*; Benzoyl(4-OMe) = COc1ccc(C(=O)*)cc1; 2Thenoyl(5-Cl) = O=C(c1ccc(Cl)s1)*; Benzoyl(3-Cl) = O=C(c1cccc(Cl)c1)*; Cyclohexylacetyl = O=C(CC1CCCCC1)*; Pyrazinecarbonyl = O=C(c1cnccn1)*; Phenoxyacetyl = O=C(COc1ccccc1)*; X10 = O=C(c1cc(-c2ccco2)[nH]n1)*; Pentanoyl(4-Me) = CC(C)CCC(=O)*; X5 = O=C(c1cc2cc(Cl)ccc2[nH]1)*; X14 = O=C(C1(c2ccccc2)CCCCC1)*; Cysteamide = C(CS[*:3])N[*:1]; X3 = O=C(Cc1c[nH]c2ccccc12)*; X6 = O=C(c1ccc2nc[nH]c2c1)*; X8 = O=C(c1ccc(=O)[nH]n1)*; Ethoxyacetyl = CCOCC(=O)*; Isovaleryl = CC(C)CC(=O)*; X7 = CC(C)=CCCC(C)CC(=O)*; MeOSuc = COC(=O)CCC(=O)*; X1 = O=C(/C=C/c1ccccc1)*; 2Furoyl = O=C(c1ccco1)*; Dap = NC[C@H](N)C(=O)O; X15 = O=C(c1cc[nH]n1)*; Inp = O=C(O)C1CCNCC1; Bz = O=C(c1ccccc1)*; Ms = CS(=O)(=O)*; Mpa = O=C(O)CCS
# Target: MDM2 (Homo sapiens, UniProt Q00987)
# Assay: MDM2 binding screen: displacement of fluorescent p53 peptide probe FP53 (fluorescence polarization)
# Details: 10 µM macrocycle concentration; crude acylated macrocycle (scaffold Mpa-AA1-AA2-AA3 x carboxylic acid); p53-based fluorescent peptide, human MDM2
# Method in brief: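 Single-point screen: one fluorescence anisotropy reading at 25 °C (485 nm excitation, 535 nm emission) per macrocycle. Crude macrocycle reactions, final 10 µM, were scored for displacing the fluorescent p53 peptide from human MDM2.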
# Sequence of MDM2 (Q00987 whole entry): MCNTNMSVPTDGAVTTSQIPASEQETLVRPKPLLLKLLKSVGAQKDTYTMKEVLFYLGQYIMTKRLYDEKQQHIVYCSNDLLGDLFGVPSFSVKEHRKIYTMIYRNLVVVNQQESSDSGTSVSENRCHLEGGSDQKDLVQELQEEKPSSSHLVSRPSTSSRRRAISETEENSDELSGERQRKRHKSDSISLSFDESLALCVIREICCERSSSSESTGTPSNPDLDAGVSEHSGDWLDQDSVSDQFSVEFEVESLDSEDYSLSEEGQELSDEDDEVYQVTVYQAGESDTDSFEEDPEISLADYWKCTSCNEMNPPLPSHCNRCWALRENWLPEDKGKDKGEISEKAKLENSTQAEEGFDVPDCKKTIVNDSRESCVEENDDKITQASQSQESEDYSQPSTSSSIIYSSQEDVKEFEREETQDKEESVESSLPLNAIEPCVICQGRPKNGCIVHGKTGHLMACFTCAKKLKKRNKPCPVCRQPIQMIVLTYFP
row,Structure (SMILES),fraction fluorescent probe displaced
1,O=C(NC[C@@H]1NC(=O)[C@@H]2CCCN2C(=O)CCSSCCNC(=O)[C@H](Cc2ccccc2)NC1=O)c1cc2cc(Cl)ccc2[nH]1 [X-B1-D3-F + A39] ([Mpa]P[Dap](X5)F-Cysteamide; disulfide 1-C),0.08617
2,O=C(NC[C@@H]1NC(=O)[C@@H]2CCCN2C(=O)CCSSCCNC(=O)[C@H](Cc2ccccc2)NC1=O)C1CCOCC1 [X-B1-D3-F + A44] ([Mpa]P[Dap](Tetrahydropyran4carbonyl)F-Cysteamide; disulfide 1-C),0.01122
3,N#CC1(C(=O)NC[C@@H]2NC(=O)[C@@H]3CCCN3C(=O)CCSSCCNC(=O)[C@H](Cc3ccccc3)NC2=O)CC1 [X-B1-D3-F + A56] ([Mpa]P[Dap](Cyclopropanecarbonyl(1-CN))F-Cysteamide; disulfide 1-C),0
4,CS(=O)(=O)N1CCC(C(=O)NC[C@@H]2NC(=O)[C@@H]3CCCN3C(=O)CCSSCCNC(=O)[C@H](Cc3ccccc3)NC2=O)CC1 [X-B1-D3-F + A57] ([Mpa]P[Dap]([Inp-Ms])F-Cysteamide; disulfide 1-C),-0.1145
5,O=C(CC1CCCCC1)NC[C@@H]1NC(=O)[C@@H]2CCCN2C(=O)CCSSCCNC(=O)[C@H](Cc2ccccc2)NC1=O [X-B1-D3-F + A66] ([Mpa]P[Dap](Cyclohexylacetyl)F-Cysteamide; disulfide 1-C),0.03478
6,CC(C)CCC(=O)NC[C@@H]1NC(=O)[C@@H]2CCCN2C(=O)CCSSCCNC(=O)[C@H](Cc2ccccc2)NC1=O [X-B1-D3-F + A68] ([Mpa]P[Dap](Pentanoyl(4-Me))F-Cysteamide; disulfide 1-C),-0.1369
7,O=C(Cc1ccncc1)NC[C@@H]1NC(=O)[C@@H]2CCCN2C(=O)CCSSCCNC(=O)[C@H](Cc2ccccc2)NC1=O [X-B1-D3-F + A70] ([Mpa]P[Dap](Acetyl(4-pyridyl))F-Cysteamide; disulfide 1-C),-0.04156
8,COc1ccc(C(=O)NC[C@@H]2NC(=O)[C@@H]3CCCN3C(=O)CCSSCCNC(=O)[C@H](Cc3ccccc3)NC2=O)cc1 [X-B1-D3-F + A71] ([Mpa]P[Dap](Benzoyl(4-OMe))F-Cysteamide; disulfide 1-C),-0.03153
9,O=C(NC[C@@H]1NC(=O)[C@@H]2CCCN2C(=O)CCSSCCNC(=O)[C@H](Cc2ccccc2)NC1=O)C1=C[C@@H](O)[C@@H](O)[C@H](O)C1 [X-B1-D3-F + A72] ([Mpa]P[Dap](Shikimoyl)F-Cysteamide; disulfide 1-C),0.06911
10,O=C(NC[C@@H]1NC(=O)[C@@H]2CCCN2C(=O)CCSSCCNC(=O)[C@H](Cc2ccccc2)NC1=O)C1Cc2ccccc2C1 [X-B1-D3-F + A76] ([Mpa]P[Dap](Indane2carbonyl)F-Cysteamide; disulfide 1-C),0.03186
11,O=C(NC[C@@H]1NC(=O)[C@@H]2CCCN2C(=O)CCSSCCNC(=O)[C@H](Cc2ccccc2)NC1=O)c1cc(-c2ccco2)[nH]n1 [X-B1-D3-F + A79] ([Mpa]P[Dap](X10)F-Cysteamide; disulfide 1-C),0.07009
12,CC(C)=CCCC(C)CC(=O)NC[C@@H]1NC(=O)[C@@H]2CCCN2C(=O)CCSSCCNC(=O)[C@H](Cc2ccccc2)NC1=O (stereo partly drawn) [X-B1-D3-F + A84] ([Mpa]P[Dap](X7)F-Cysteamide; disulfide 1-C),0.05085
13,O=C(NC[C@@H]1NC(=O)[C@@H]2CCCN2C(=O)CCSSCCNC(=O)[C@H](Cc2ccccc2)NC1=O)c1ccc(=O)[nH]n1 [X-B1-D3-F + A86] ([Mpa]P[Dap](X8)F-Cysteamide; disulfide 1-C),0.01272
14,O=C(/C=C/c1ccccc1)NC[C@@H]1NC(=O)[C@@H]2CCCN2C(=O)CCSSCCNC(=O)[C@H](Cc2ccccc2)NC1=O [X-B1-D3-F + A91] ([Mpa]P[Dap](X1)F-Cysteamide; disulfide 1-C),0.08311
15,COC(=O)CCC(=O)NC[C@@H]1NC(=O)[C@@H]2CCCN2C(=O)CCSSCCNC(=O)[C@H](Cc2ccccc2)NC1=O [X-B1-D3-F + A93] ([Mpa]P[Dap](MeOSuc)F-Cysteamide; disulfide 1-C),0.05512
16,O=C1NCCSSCCC(=O)N2CCC[C@H]2C(=O)N[C@@H](CNC(=O)C2(c3ccccc3)CCCCC2)C(=O)N[C@H]1Cc1ccccc1 [X-B1-D3-F + A98] ([Mpa]P[Dap](X14)F-Cysteamide; disulfide 1-C),0.6432
17,CCOCC(=O)NC[C@@H]1NC(=O)[C@@H]2CCCN2C(=O)CCSSCCNC(=O)[C@H](Cc2ccccc2)NC1=O [X-B1-D3-F + A104] ([Mpa]P[Dap](Ethoxyacetyl)F-Cysteamide; disulfide 1-C),0.09201
18,NC[C@@H]1NC(=O)[C@@H]2CCCN2C(=O)CCSSCCNC(=O)[C@H](Cc2ccccc2)NC1=O [X-B1-D3-F + No Acid] ([Mpa]P[Dap]F-Cysteamide; disulfide 1-C),0.01749
19,"COc1cc(OC)cc(C(=O)NC[C@@H]2NC(=O)[C@@H]3CCCN3C(=O)CCSSCCNC(=O)[C@H](Cc3c[nH]c4ccccc34)NC2=O)c1 [X-B1-D3-W + A4] ([Mpa]P[Dap](Benzoyl(3,5-diOMe))W-Cysteamide; disulfide 1-C)",0.03512
20,O=C(COc1ccccc1)NC[C@@H]1NC(=O)[C@@H]2CCCN2C(=O)CCSSCCNC(=O)[C@H](Cc2c[nH]c3ccccc23)NC1=O [X-B1-D3-W + A13] ([Mpa]P[Dap](Phenoxyacetyl)W-Cysteamide; disulfide 1-C),0.1956
21,O=C(NC[C@@H]1NC(=O)[C@@H]2CCCN2C(=O)CCSSCCNC(=O)[C@H](Cc2c[nH]c3ccccc23)NC1=O)c1cccc(C(F)(F)F)c1 [X-B1-D3-W + A18] ([Mpa]P[Dap](Benzoyl(3-CF3))W-Cysteamide; disulfide 1-C),-0.006211

# Further lines, results first:
row,fraction fluorescent probe displaced,Structure (SMILES)
1,-0.005048,O=C(NC[C@@H]1NC(=O)[C@@H]2CCCN2C(=O)CCSSCCNC(=O)[C@H](Cc2c[nH]c3ccccc23)NC1=O)c1ccccc1 [X-B1-D3-W + A1] ([Mpa]P[Dap](Bz)W-Cysteamide; disulfide 1-C)
2,0.03807,O=C(NC[C@@H]1NC(=O)[C@@H]2CCCN2C(=O)CCSSCCNC(=O)[C@H](Cc2c[nH]c3ccccc23)NC1=O)c1cnccn1 [X-B1-D3-W + A2] ([Mpa]P[Dap](Pyrazinecarbonyl)W-Cysteamide; disulfide 1-C)
3,0.08125,Cc1cc(C(=O)NC[C@@H]2NC(=O)[C@@H]3CCCN3C(=O)CCSSCCNC(=O)[C@H](Cc3c[nH]c4ccccc34)NC2=O)no1 [X-B1-D3-W + A3] ([Mpa]P[Dap](Isoxazole3carbonyl(5-Me))W-Cysteamide; disulfide 1-C)
4,0.05625,O=C(NC[C@@H]1NC(=O)[C@@H]2CCCN2C(=O)CCSSCCNC(=O)[C@H](Cc2c[nH]c3ccccc23)NC1=O)c1cc[nH]n1 [X-B1-D3-W + A5] ([Mpa]P[Dap](X15)W-Cysteamide; disulfide 1-C)
5,0.2779,O=C(NC[C@@H]1NC(=O)[C@@H]2CCCN2C(=O)CCSSCCNC(=O)[C@H](Cc2c[nH]c3ccccc23)NC1=O)c1ccc2nc[nH]c2c1 [X-B1-D3-W + A6] ([Mpa]P[Dap](X6)W-Cysteamide; disulfide 1-C)
6,0.05096,CC(=O)NC[C@@H]1NC(=O)[C@@H]2CCCN2C(=O)CCSSCCNC(=O)[C@H](Cc2c[nH]c3ccccc23)NC1=O [X-B1-D3-W + A7] ([Mpa]P[Dap](Ac)W-Cysteamide; disulfide 1-C)
7,0.1324,CC(C)CC(=O)NC[C@@H]1NC(=O)[C@@H]2CCCN2C(=O)CCSSCCNC(=O)[C@H](Cc2c[nH]c3ccccc23)NC1=O [X-B1-D3-W + A8] ([Mpa]P[Dap](Isovaleryl)W-Cysteamide; disulfide 1-C)
8,0.06006,O=C(NC[C@@H]1NC(=O)[C@@H]2CCCN2C(=O)CCSSCCNC(=O)[C@H](Cc2c[nH]c3ccccc23)NC1=O)c1c[nH]c(=O)cn1 [X-B1-D3-W + A9] ([Mpa]P[Dap](Pyrazinoyl(5-oxo-4H))W-Cysteamide; disulfide 1-C)
9,0.2362,COc1ccc(C(=O)NC[C@@H]2NC(=O)[C@@H]3CCCN3C(=O)CCSSCCNC(=O)[C@H](Cc3c[nH]c4ccccc34)NC2=O)cn1 [X-B1-D3-W + A10] ([Mpa]P[Dap](Nicotinoyl(6-OMe))W-Cysteamide; disulfide 1-C)
10,0.1,O=C(NC[C@@H]1NC(=O)[C@@H]2CCCN2C(=O)CCSSCCNC(=O)[C@H](Cc2c[nH]c3ccccc23)NC1=O)c1c[nH]c(=O)[nH]c1=O [X-B1-D3-W + A11] ([Mpa]P[Dap](Isoorotoyl)W-Cysteamide; disulfide 1-C)
11,0.1189,O=C(Cc1c[nH]c2ccccc12)NC[C@@H]1NC(=O)[C@@H]2CCCN2C(=O)CCSSCCNC(=O)[C@H](Cc2c[nH]c3ccccc23)NC1=O [X-B1-D3-W + A12] ([Mpa]P[Dap](X3)W-Cysteamide; disulfide 1-C)
12,0.1687,O=C(NC[C@@H]1NC(=O)[C@@H]2CCCN2C(=O)CCSSCCNC(=O)[C@H](Cc2c[nH]c3ccccc23)NC1=O)c1ccc(Cl)s1 [X-B1-D3-W + A14] ([Mpa]P[Dap](2Thenoyl(5-Cl))W-Cysteamide; disulfide 1-C)
13,0.02409,"Cc1nnsc1C(=O)NC[C@@H]1NC(=O)[C@@H]2CCCN2C(=O)CCSSCCNC(=O)[C@H](Cc2c[nH]c3ccccc23)NC1=O [X-B1-D3-W + A15] ([Mpa]P[Dap](1,2,3Thiadiazole5CO(4-Me))W-Cysteamide; disulfide 1-C)"
14,0.06294,O=C(NC[C@@H]1NC(=O)[C@@H]2CCCN2C(=O)CCSSCCNC(=O)[C@H](Cc2c[nH]c3ccccc23)NC1=O)c1ccco1 [X-B1-D3-W + A16] ([Mpa]P[Dap](2Furoyl)W-Cysteamide; disulfide 1-C)
15,0.2671,O=C(NC[C@@H]1NC(=O)[C@@H]2CCCN2C(=O)CCSSCCNC(=O)[C@H](Cc2c[nH]c3ccccc23)NC1=O)c1cccc(Cl)c1 [X-B1-D3-W + A17] ([Mpa]P[Dap](Benzoyl(3-Cl))W-Cysteamide; disulfide 1-C)
